# Reference: patent publication US20100120798A1, “SUBSTITUTED PIPERIDINES CONTAINING A HETEROARYLAMIDE OR HETEROARYLPHENYL MOIETY” (ASTEX THERAPEUTICS LIMITED, priority 2006, published 2010)
# Structures can show the parent of a compound that is named as a salt.
# Experiment: In vitro MDA-MB-468 human breast adenocarcinoma GSK-3 phosphorylation assay
# Format: cell-based
# Details: mean IC50, MDA-MB-468 cells, 2 hours with compound, phospho-GSK-3β
# Source text: This assay determines the ability of test compounds to inhibit phosphorylation of Serine-9 residue in Glycogen Synthase Kinase-3beta (GSK-3β) as a surrogate marker of cellular PKB (Akt) activity, as assessed using Acumen Explorer Fluorescent Plate-Reader technology. A MDA-MB-468 human breast adenocarcinoma cell line (LGC Promochem, Teddington, Middlesex, UK, Catalogue No. HTB-132) was routinely maintained in Dulbecco's modified Eagle's growth medium (DMEM; Invitrogen Limited, Paisley, UK Catalogue No. 11966-025) containing 10% heat-inactivated foetal calf serum (FCS; Sigma, Poole, Dorset, UK, Catalogue No. F0392) and 1% L-glutamine (Gibco, Catalogue No. 25030-024) at 37° C. with 5% CO2 up to a confluency of 70-90%.
# For the phosphorylation assay, the cells were detached from the culture flask using Trypsin-EDTA (Invitrogen Limited, Catalogue No. 25300-062) and seeded into the wells of a black transparent-bottom Corning Costar Polystyrene 96 well plate (Fisher Scientific UK, Loughborough, Leicestershire, UK; Catalogue No. 3904 and DPS-130-020K) at a density of 5000 cells per well in 100 μl of complete growth media. The cells were incubated overnight at 37° C. with 5% CO2 to allow them to adhere.
# On day 2, the cells were treated with test compounds and incubated for 2 hours at 37° C. with 5% CO2. Test compounds were prepared as 10 mM stock solutions in DMSO and dosed directly to required concentration into test wells using non-contact (acoustic dispensing of multiple 2.5 nl droplets directly into assay wells) ECHO dosing technology (Labcyte Inc. Sunnyvale, Calif., USA). Each plate contained control wells without test compound.
# 20 μl of fixing buffer (Phosphate Buffered Saline (PBS) containing 10% formaldehyde; Sigma; Catalogue No. F1635) was then added to each well to give a final well concentration 1.6%. Plates were then incubated for 30 minutes at room temperature prior to the fixative being removed. Each well was washed once with 250 μl of PBS and then 50 μl PBS added to each well. PBS was then aspirated and cells permeabilised and blocked by incubating each well with 50 μl of permeabilisation/blocking buffer (PBS containing 0.5% Tween 20 (Sigma; Catalogue No. P5927) and 5% Marvel Milk Powder (Andrews Pharmacy Ltd, Macclesfield, Cheshire, UK; Catalogue No. APC100199)) for 1 hour at room temperature prior to staining.
# Following removal of Perm/Block buffer, 50 μl of primary anti-phospho-GSK-3β antibody (Cell Signalling Technology (New England Biolabs (Uk) Ltd.), Hitchin, Hertfordshire, UK; Catalogue No. 9336 diluted 1:400 in Blocking buffer (PBS containing 5% Marvel and 0.05% Tween/Polysorbate 20) was added to each well and incubated overnight at 4° C.
# Each well was washed three times in 250 μl of wash buffer (PBS containing 0.05% polysorbate 20), and cells incubated for 1 hour at room temperature with 50 μl of secondary fluorescently-labelled anti-rabbit Alexa Fluor 488 antibody (Molecular Probes, Invitrogen Limited, Catalogue No. A11008) diluted 1:750 in blocking buffer. Plates were washed three times in 250 μl of wash buffer and stored containing 50 μl of PBS at 4° C. until required.
# Plates were analysed using an Acumen Explorer Plate-reader to quantify level of fluorescent signal that represents quantity of phosphorylated-GSK-3β.
# IC50 calculation—IC50 is the concentration of compound required to give 50% effect over the range of activity affected by the compound, between maximum (no compound) and minimum (excess level of compound) response control data. IC50 values were determined by fitting background corrected, dose response assay data to a 4 parameter logistic curve fit equation model with the minimum response set to zero. This was done using an in-house developed algorithm within the Origin graphing software package (OriginLab Corporation, Northampton, Mass., USA). […]
row,IC50 [nM],Compound
1,200,"Cc1cnc(NC(=O)C2(CN)CCN(c3ncnc4[nH]ccc34)CC2)s1 [Example 59, 4-(aminomethyl)-N-(5-methylthiazol-2-yl)-1-(7H-pyrrolo[2,3-d]pyrimidin-4-yl)piperidine-4-carboxamide]"
2,55,"Cc1ccncc1-c1cccc(C2(CN)CCN(c3ncnc4[nH]ccc34)CC2)c1 [Example 74, [4-[3-(4-methylpyridin-3-yl)phenyl]-1-(7H-pyrrolo[3,2-e]pyrimidin-4-yl)piperidin-4-yl]methanamine]"
3,330,"NCC1(C(=O)Nc2ccc(F)cn2)CCN(c2ncnc3[nH]ccc23)CC1 [Example 60, 4-(aminomethyl)-N-(5-fluoropyridin-2-yl)-1-(7H-pyrrolo[2,3-d]pyrimidin-4-yl)piperidine-4-carboxamide]"
4,19000,"NC1(C(=O)NCc2cc(-c3ccc(Cl)cc3)no2)CCN(c2ncnc3[nH]ccc23)CC1 [Example 44, 4-amino-N-[[3-(4-chlorophenyl)-1,2-oxazol-5-yl]methyl]-1-(7H-pyrrolo[2,3-d]pyrimidin-4-yl)piperidine-4-carboxamide]"
5,50,"NCC1(c2cccc(-c3ccco3)c2)CCN(c2ncnc3[nH]ccc23)CC1 [Example 78, [4-[3-(furan-2-yl)phenyl]-1-(7H-pyrrolo[3,2-e]pyrimindin-4-yl)piperidin-4-yl]methanamine]"
6,700,"NC1(C(=O)NCc2cc3ccccc3[nH]2)CCN(c2ncnc3[nH]ccc23)CC1 [Example 50, 4-Amino-1-(7H-pyrrolo[2,3-d]pyrimidin-4-yl)-piperidine-4-carboxylic acid (1H-indol-2-ylmethyl)-amide]"
7,> 19000,"NC1(C(=O)NCc2ccncc2)CCN(c2ncnc3[nH]ccc23)CC1 [Example 43, 4-Amino-N-(pyridin-4-ylmethyl)-1-(7H-pyrrolo[2,3-d]pyrimidin-4-yl)piperidine-4-carboxamide]"
8,17,"NCC1(c2cc(F)cc(-c3cncc(F)c3)c2)CCN(c2ncnc3[nH]ccc23)CC1 [Example 71, (4-(3-Fluoro-5-(5-fluoropyridin-3-yl)phenyl)-1-(7H-pyrrolo[2,3-d]pyrimidin-4-yl)piperidin-4-yl)methanamine]"
9,7100,"NC1(C(=O)NCc2csc(-c3ccccc3)n2)CCN(c2ncnc3[nH]ccc23)CC1 [Example 42, 4-Amino-N-[(2-phenyl-1,3-thiazol-4-yl)methyl]-1-(7H-pyrrolo[2,3-d]pyrimidin-4-yl)piperidine-4-carboxamide]"
10,170,"NCC1(C(=O)Nc2nc3ccccc3s2)CCN(c2ncnc3[nH]ccc23)CC1 [Example 63, 4-(Aminomethyl)-N-(benzo[d]thiazol-2-yl)-1-(7H-pyrrolo[2,3-d]pyrimidin-4-yl)piperidine-4-carboxamide]"
11,3900,"Cc1ccsc1CNC(=O)C1(N)CCN(c2ncnc3[nH]ccc23)CC1 [Example 47, 4-Amino-1-(7H-pyrrolo[2,3-d]pyrimidin-4-yl)-piperidine-4-carboxylic acid (3-methyl-thiophen-2-ylmethyl)-amide]"
12,33,"NCC1(c2cccc(-c3cccnc3)c2)CCN(c2ncnc3[nH]ccc23)CC1 [Example 76, [4-(3-pyridin-3-ylphenyl)-1-(7H-pyrrolo[3,2-e]pyrimidin-4-yl)piperidin-4-yl]methanamine]"
13,310,"Cc1cnc(NC(=O)C2(CN)CCN(c3ncnc4[nH]cnc34)CC2)s1 [Example 72, 4-(Aminomethyl)-N-(5-methylthiazol-2-yl)-1-(9H-purin-6-yl)piperidine-4-carboxamide]"
14,150,"NCC1(c2cccc(-c3cn[nH]c3)c2)CCN(c2ncnc3[nH]ccc23)CC1 [Example 73, [4-[3-(1H-Pyrazol-4-yl)phenyl]-1-(7H-pyrrolo[3,2-e]pyrimidin-4-yl)piperidin-4-yl]methanamine]"

# The remaining lines, values behind:
row,Compound,IC50 [nM]
1,"CN(C)CC(=O)NCC1(c2cccc(-c3cnn(C)c3)c2)CCN(c2ncnc3[nH]cnc23)CC1 [Example 36, 2-(dimethylamino)-N-((4-(3-(1-methyl-1H-pyrazol-4-yl)phenyl)-1-(9H-purin-6-yl)piperidin-4-yl)methyl)acetamide]",2800
2,"Cn1cc(-c2cccc(C3(CN)CCN(c4ncnc5[nH]cc(Br)c45)CC3)c2)cn1 [Example 28, (1-(5-bromo-7H-pyrrolo[2,3-d]pyrimidin-4-yl)-4-(3-(1-methyl-1H-pyrazol-4-yl)phenyl)piperidin-4-yl)methanamine]",7.2
3,"NC1(C(=O)NCc2ccc(C(F)(F)F)nc2)CCN(c2ncnc3[nH]ccc23)CC1 [Example 14, 4-amino-1-(7H-pyrrolo[2,3-d]pyrimidin-4-yl)-piperidine-4-carboxylic acid (6-trifluoromethyl-pyridin-3-ylmethyl)-amide hydrochloride]",1400
4,"NCC1(C(=O)NCc2cc3ccccc3[nH]2)CCN(c2ncnc3[nH]nc(Br)c23)CC1 [Example 25, N-((1H-Indol-2-yl)methyl)-4-(aminomethyl)-1-(3-bromo-1H-pyrazolo[3,4-d]pyrimidin-4-yl)piperidine-4-carboxamide]",10
5,"Cn1cc(-c2cccc(C3(C(N)=O)CCN(c4ncnc5[nH]cnc45)CC3)c2)cn1 [Example 37, 4-[3-(1-methylpyrazol-4-yl)phenyl]-1-(9H-purin-6-yl)piperidine-4-carboxamide]",> 30000
6,"Cn1cc(-c2cccc(C3(CN4CCCC4)CCN(c4ncnc5[nH]cnc45)CC3)c2)cn1 [Example 33, 6-(4-(3-(1-methyl-1H-pyrazol-4-yl)phenyl)-4-(pyrrolidin-1-ylmethyl)piperidin-1-yl)-9H-purine]",740
7,"Cn1cc(-c2cccc(C3(CO)CCN(c4ncnc5[nH]cnc45)CC3)c2)cn1 [Example 10, [4-[3-(1-Methyl-1H-pyrazol-4-yl)-phenyl]-1-(9H-purin-6-yl)-piperidin-4-yl]-methanol]",5100
8,"NCC1(C(=O)NCc2cc(Br)no2)CCN(c2ncnc3[nH]ccc23)CC1 [Example 24, 4-(Aminomethyl)-N-((3-bromoisoxazol-5-yl)methyl)-1-(7H-pyrrolo[2,3-d]pyrimidin-4-yl)piperidine-4-carboxamide]",8.6
9,"Cc1sccc1-c1cccc(C2(CN)CCN(c3ncnc4[nH]cnc34)CC2)c1 [Example 7, C-[4-[3-(2-Methyl-thiophen-3-yl)-phenyl]-1-(9H-purin-6-yl)-piperidin-4-yl]-methylamine]",< 8
10,"Cc1ccc(CNC(=O)C2(CN)CCN(c3ncnc4[nH]ccc34)CC2)s1 [Example 23, 4-(Aminomethyl)-N-((5-methylthiophen-2-yl)methyl)-1-(7H-pyrrolo[2,3-d]pyrimidin-4-yl)piperidine-4-carboxamide]",43
11,"NCC1(c2cccc(-c3cncc(F)c3)c2)CCN(c2ncnc3[nH]cnc23)CC1 [Example 8, C-[4-[3-(5-Fluoro-pyridin-3-yl)-phenyl]-1-(9H-purin-6-yl)-piperidin-4-yl]-methylamine]",< 13
12,"Cn1cc(-c2cccc(C3(CN)CCN(c4ncnc5[nH]cc(Cl)c45)CC3)c2)cn1 [Example 29, (1-(5-Chloro-7H-pyrrolo[2,3-d]pyrimidin-4-yl)-4-(3-(1-methyl-1H-pyrazol-4-yl)phenyl)piperidin-4-yl)methanamine]",11
13,"Cn1cc(-c2cccc(C3(CNC(=O)CN)CCN(c4ncnc5[nH]cnc45)CC3)c2)cn1 [Example 35, 2-amino-N-((4-(3-(1-methyl-1H-pyrazol-4-yl)phenyl)-1-(9H-purin-6-yl)piperidin-4-yl)methyl)acetamide]",1300
